Data set [1] deals with Trypanosoma brucei brucei. Nature of the data set: Antitrypanosomal activity against Trypanosoma brucei brucei CMP infected in Swiss mouse assessed as cure rate at 50 umol/kg, ip administered as single dose. It counts as functional.
Data set [2] relates to Trypanosoma brucei brucei. Nature of the data set: Antitrypanosomal activity against Trypanosoma brucei brucei CMP infected in Swiss mouse assessed as parasite number level ul of blood at 100 umol/kg, ip administered as single dose measured on day 2. The format is functional.
The test system of data set [3] is Trypanosoma brucei brucei. Nature of the data set: Antitrypanosomal activity against Trypanosoma brucei brucei CMP infected in Swiss mouse assessed as parasite number level ul of blood at 100 umol/kg, ip administered as single dose measured on day 3. It counts as functional.
Data set [4] can be described thus: Selectivity index, ratio of CC50 for mouse 3T6 cells to IC50 for Trypanosoma brucei gambiense strain FeoITMAP/1893. It counts as functional.
Data set [5] deals with Mus musculus. The data set is described as follows: Toxicity against Swiss mouse infected with Trypanosoma brucei brucei CMP assessed as animal death at 100 umol/kg, ip administered as single dose. The format is organism-based. As to conditions: in vivo.
Data set [6] has as its system Mus musculus. The data set is described as follows: Toxicity against Swiss mouse infected with Trypanosoma brucei brucei CMP assessed as animal death at 50 umol/kg, ip administered as single dose. The format is organism-based. As to conditions: in vivo.
The subject of data set [7] is Trypanosoma brucei brucei. The data set is described as follows: Antitrypanosomal activity against Trypanosoma brucei brucei CMP infected in Swiss mouse assessed as parasite number level ul of blood at 50 umol/kg, ip administered as single dose measured on day 4. The format is functional.
The subject of data set [8] is Trypanosoma brucei brucei. Nature of the data set: Antitrypanosomal activity against Trypanosoma brucei brucei CMP infected in Swiss mouse assessed as parasite number level ul of blood at 100 umol/kg, ip administered as single dose measured on day 4. It counts as functional.
A short description of data set [9]: Cytotoxicity against mouse 3T6 cells assessed as inhibition of cell proliferation after 48 hrs by MTT assay. The format is cell-based. Background: Formazan colour is commonly taken as a measure of viable cells.
Data set [10] has as its system Trypanosoma brucei brucei. The data set is described as follows: Antitrypanosomal activity against Trypanosoma brucei brucei CMP infected in Swiss mouse assessed as mean survival time at 100 umol/kg, ip administered as single dose. The format is functional.
The test system of data set [11] is Trypanosoma brucei brucei. Nature of the data set: Antitrypanosomal activity against Trypanosoma brucei brucei CMP infected in Swiss mouse assessed as parasite number level ul of blood at 50 umol/kg, ip administered as single dose measured on day 3. It counts as functional.
Data set [12] relates to Trypanosoma brucei brucei. The data set is described as follows: Antitrypanosomal activity against Trypanosoma brucei brucei CMP infected in Swiss mouse assessed as mean survival time at 50 umol/kg, ip administered as single dose. The format is functional.
In data set [13] the test system is Trypanosoma brucei brucei. The data set is described as follows: Antitrypanosomal activity against Trypanosoma brucei brucei CMP infected in Swiss mouse assessed as parasite number level ul of blood at 50 umol/kg, ip administered as single dose measured on day 2. The format is functional.
In data set [14] the test system is Trypanosoma brucei gambiense. Nature of the data set: Antitrypanosomal activity against Trypanosoma brucei gambiense FeoITMAP/1893 assessed as inhibition of parasite growth after 72 hrs by resazurin dye based microplate reader analysis. It counts as functional, organism-based. As to conditions: FeoITMAP/1893, 72 h. A general note: Resazurin is reduced to fluorescent resorufin, in cell work by metabolically active cells.

The subject of data set [15] is Trypanosoma brucei brucei. Nature of the data set: Antitrypanosomal activity against Trypanosoma brucei brucei CMP infected in Swiss mouse assessed as cure rate at 100 umol/kg, ip administered as single dose. It counts as functional.
Data set [16] can be described thus: Cytotoxicity against monkey LLC-MK2 cells. The format is cell-based, Macaca mulatta. The conditions noted are these: rhesus monkey.
Data set [17] concerns Trypanosoma brucei brucei. Nature of the data set: Antitrypanosomal activity against Trypanosoma brucei brucei CMP infected in Swiss mouse assessed as parasite number level ul of blood at 100 umol/kg, ip administered as single dose measured on day 30. It counts as functional.

Experimental findings from ChEMBL document CHEMBL3600287, “New heterocyclic compounds: Synthesis and antitrypanosomal properties” (Bioorg Med Chem, 2015) are described below.

For `CCOC(=O)c1cn(C2CC2)c2cc(N3CCN(Cc4ccccc4)CC3)c(F)cc2c1=O`, the Activity in data set [1] was 0%; in data set [2] it was 0 µL⁻¹; in data set [3] it was 0 µL⁻¹; in the data set with Mus musculus [5], “Non-toxic”; in the data set on Mus musculus [6], “Non-toxic”; in data set [7], 7 µL⁻¹. Moreover, the Activity was determined as 0 µL⁻¹ in data set [8], 0 µL⁻¹ in data set [11], 0 µL⁻¹ in [13] and 0% in data set [15]. Further, in data set [4], the “Ratio CC50/IC50” value stood at 5. For the same compound, the CC50 at 48 h in [9] was greater than 30 µM. Further, the MST in data set [10] is 8.2 days; in data set [12] it was 6.1 days. Besides, in data set [14], the IC50 was determined as 6.03 µM.

In the case of `CCOC(=O)c1cn(C2CC2)c2cc(N3CCN(CC45CC6CC(CC(C6)C4)C5)CC3)c(F)cc2c1=O`, in data set [4], the “Ratio CC50/IC50” value was found to be 1.2. Moreover, the cytotoxic concentration (CC50) at 48 h in data set [9] came to 27.8 µM. In addition, the IC50 in [14] is 23.1 µM.

In the case of `Fc1ccc2[nH]c(-c3ccc(Nc4ccnc5cc(Cl)ccc45)cc3)nc2c1`, the midpoint of cytotoxicity in data set [16], the CC50, lay at 10.6 µM. Further, the Activity is 0% in data set [1]; 0 µL⁻¹ in data set [2]; 97 µL⁻¹ in data set [3]; “Non-toxic” with Mus musculus [5]; “Non-toxic” in the data set on Mus musculus [6]; 28317 µL⁻¹ in data set [7]. Also, the Activity amounted to 31590 µL⁻¹ in data set [8], 117 µL⁻¹ in data set [11], 13.7 µL⁻¹ in data set [13] and 0% in data set [15]. Besides, the “Ratio CC50/IC50” value in data set [4] is on record as 5.3. Besides, the figures for the MST in data set [10] and in data set [12] were 1.2 days and 1.1 days, respectively. Besides, the IC50 in data set [14] is 1.98 µM.

In data set [16], `Clc1ccc2c(Nc3ccc(-c4nc5ccccc5[nH]4)cc3)ccnc2c1` came in with a CC50 of 15.5 µM. In data set [4], the “Ratio CC50/IC50” value is 4.1. The IC50 in data set [14] amounted to 3.79 µM.

For the compound `N=C(N)c1ccc(OCCCCCOc2ccc(C(=N)N)cc2)cc1.O=S(=O)(O)CCO`, the Activity is 0 µL⁻¹ in data set [17]; 0 µL⁻¹ in data set [3]; “Non-toxic” in the data set with Mus musculus [5]; 0 µL⁻¹ in data set [8]; 100% in data set [15]. The MST in data set [10] was greater than 30 days.

For the compound `CCN(CC)CCCC(C)Nc1ccnc2cc(Cl)ccc12.O=P(O)(O)O.O=P(O)(O)O` (stereo not drawn) [CHLOROQUINE PHOSPHATE], the Activity in [2] was 23.7 µL⁻¹; in data set [3] it was 498 µL⁻¹; in the data set on Mus musculus [5] it was “Non-toxic”; in data set [8], 42607 µL⁻¹; in data set [15], 0%. For the same compound, the MST in data set [10] was determined as 0 days.

Take `CCOC(=O)c1cn(C2CC2)c2cc(N3CCNCC3)c(F)cc2c1=O` [CIPROFLOXACIN ETHYL ESTER]: the “Ratio CC50/IC50” value in data set [4] came out at 1.2. The cytotoxic concentration (CC50) at 48 h in [9] is greater than 30 µM. Also, the half-inhibitory concentration (IC50) in [14] worked out at 26 µM.

Turning to `O=C(O)c1cn(C2CC2)c2cc(N3CCNCC3)c(F)cc2c1=O` [CIPROFLOXACIN], in data set [14], the IC50 came to 52 µM.

Turning to `N=C(N)c1ccc(OCCCCCOc2ccc(C(=N)N)cc2)cc1` [PENTAMIDINE], in [14], the 50% inhibitory concentration (IC50) was 0.0049 µM.

A word on the CC50: it is the concentration at which the toxic effect on the cells reaches its halfway point. Broadly, the IC50 is the concentration needed to halve the response being measured.
